Paper PMC8645336, “Benchmarking a highly selective USP30 inhibitor for enhancement of mitophagy and pexophagy” (Life Science Alliance, 2021)

What was measured:
USP35** = target: T1, USP35** (Homo sapiens, UniProt Q9P2H5); experiment: biochemical; design: Ubiquigent DUB profiler selectivity panel, remaining enzyme activity as % of control; details: read-out: % of control remaining
T1 sequence (Q9P2H5 1-1018): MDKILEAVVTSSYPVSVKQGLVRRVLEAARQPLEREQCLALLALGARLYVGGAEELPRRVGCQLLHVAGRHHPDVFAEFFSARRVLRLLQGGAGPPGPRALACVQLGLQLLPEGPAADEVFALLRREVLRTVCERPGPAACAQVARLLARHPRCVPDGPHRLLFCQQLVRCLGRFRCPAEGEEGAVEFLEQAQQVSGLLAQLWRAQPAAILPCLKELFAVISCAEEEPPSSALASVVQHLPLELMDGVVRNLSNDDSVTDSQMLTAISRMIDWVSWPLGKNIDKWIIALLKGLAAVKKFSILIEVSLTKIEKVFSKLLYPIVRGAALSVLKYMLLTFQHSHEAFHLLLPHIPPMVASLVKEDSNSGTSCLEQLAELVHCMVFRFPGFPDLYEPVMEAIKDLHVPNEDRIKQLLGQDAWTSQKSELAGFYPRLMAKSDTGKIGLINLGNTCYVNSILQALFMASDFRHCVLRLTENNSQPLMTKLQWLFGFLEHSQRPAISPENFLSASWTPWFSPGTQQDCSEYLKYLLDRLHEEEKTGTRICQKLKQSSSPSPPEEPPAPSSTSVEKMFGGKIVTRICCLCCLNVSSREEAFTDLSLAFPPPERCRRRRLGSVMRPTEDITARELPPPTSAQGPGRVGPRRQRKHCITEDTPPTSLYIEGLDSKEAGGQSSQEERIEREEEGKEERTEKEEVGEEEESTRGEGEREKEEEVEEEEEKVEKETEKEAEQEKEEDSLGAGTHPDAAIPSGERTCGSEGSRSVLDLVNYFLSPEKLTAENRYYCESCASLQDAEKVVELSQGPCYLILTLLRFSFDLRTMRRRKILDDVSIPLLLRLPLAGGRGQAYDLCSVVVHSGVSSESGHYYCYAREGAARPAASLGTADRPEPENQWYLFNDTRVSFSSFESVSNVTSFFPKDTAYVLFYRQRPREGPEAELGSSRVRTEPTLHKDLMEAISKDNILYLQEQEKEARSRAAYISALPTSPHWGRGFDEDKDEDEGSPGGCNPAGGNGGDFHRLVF
Procedure, shortened: (§1)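 In YFP-PRKN-overexpressing hTERT-RPE1 cells, 1 h antimycin A plus oligomycin A (1 μM each) with CMPD-39, then Western blot of TOMM20 ubiquitylation. Target engagement: 2 h compound, then 10 min HA-Ub-PA at 37°C, read as USP30 shift. DUB panel (>40 enzymes) screened at 1-100 μM.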

BAP1 = target: T2, BAP1 (Homo sapiens, UniProt Q92560); experiment: biochemical; design: Ubiquigent DUB profiler selectivity panel, remaining enzyme activity as % of control; details: read-out: % of control remaining
T2 sequence (Q92560 1-729): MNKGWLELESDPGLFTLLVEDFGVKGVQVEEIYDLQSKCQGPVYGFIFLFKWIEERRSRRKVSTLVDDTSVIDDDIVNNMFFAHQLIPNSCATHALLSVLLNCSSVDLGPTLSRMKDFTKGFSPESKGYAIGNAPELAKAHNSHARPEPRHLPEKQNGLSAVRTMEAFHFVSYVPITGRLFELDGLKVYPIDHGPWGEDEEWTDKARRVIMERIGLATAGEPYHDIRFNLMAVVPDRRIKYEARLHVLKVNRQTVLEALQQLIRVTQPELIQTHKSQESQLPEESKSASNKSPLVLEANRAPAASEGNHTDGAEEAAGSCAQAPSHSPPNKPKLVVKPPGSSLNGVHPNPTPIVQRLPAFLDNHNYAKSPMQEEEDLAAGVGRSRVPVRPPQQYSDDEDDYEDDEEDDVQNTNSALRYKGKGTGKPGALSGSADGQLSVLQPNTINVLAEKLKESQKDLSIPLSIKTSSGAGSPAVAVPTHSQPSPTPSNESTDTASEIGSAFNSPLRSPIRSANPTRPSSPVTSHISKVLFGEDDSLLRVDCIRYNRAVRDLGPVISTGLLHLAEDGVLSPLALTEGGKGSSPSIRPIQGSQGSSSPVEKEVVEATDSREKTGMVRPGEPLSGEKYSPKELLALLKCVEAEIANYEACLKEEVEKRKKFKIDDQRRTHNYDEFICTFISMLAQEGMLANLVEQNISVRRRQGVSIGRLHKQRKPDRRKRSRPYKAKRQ
Procedure, shortened: as §1

What does the source list for CC(C)(C)NS(=O)(=O)c1ccc(NC(=O)[C@H](Cc2ccccc2)NC(=O)c2ccc(F)cc2)cc1 [compound 39, CMPD-39]?
remaining activity at 1 µM (USP35**): 113%; remaining activity at 10 µM (USP35**): 101%; remaining activity at 100 µM (USP35**): 102%; remaining activity at 1 µM (BAP1): 104%; remaining activity at 10 µM (BAP1): 89%; remaining activity at 100 µM (BAP1): 96.5%
